Source: ChEMBL document CHEMBL1201862, “PubChem BioAssay data set” (2004)
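96-well plates; 48 h exposure; 5 concentrations. Endpoints by linear interpolation between flanking doses. Not reached: highest tested concentration assigned. The concentration for 50% growth inhibition is given as GI50.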 The source made the active and inactive calls. No stated cut-off is given here; in the data, active = GI50 up to about 1.1 µM and inactive = higher.

Key:
Experiment in all cases: NCI anticancer screen, dose series, 48 h
[1] = system: A498
[2] = system: UO-31
[3] = system: CAKI-1
[4] = system: SNB-75
[5] = system: SR
[6] = system: SF-539
[7] = system: KM12
[8] = system: T47D
[9] = system: Hs-578T
[10] = system: MDA-N
[11] = system: HCT-15
[12] = system: SK-MEL-28
[13] = system: SNB-19
[14] = system: NCI/ADR-RES
[15] = system: IGROV-1
[16] = system: HCT-116
[17] = system: SW-620
[18] = system: Malme-3M
[19] = system: MDA-MB-435
[20] = system: SK-OV-3

Structure (SMILES)	GI50 [1]	GI50 [2]	GI50 [3]	GI50 [4]	GI50 [5]	GI50 [6]	GI50 [7]	GI50 [8]	GI50 [9]	GI50 [10]	GI50 [11] [µM]	GI50 [12]	GI50 [13]	GI50 [14]	GI50 [15]	GI50 [16]	GI50 [17]	GI50 [18]	GI50 [19]	GI50 [20]
CN(C)CCNc1ccc2c(=O)n(CCN(C)C)c(=O)n3c4ccc(O)cc4c(=O)c1c23	0.0611 µM (active)	< 0.0148 µM (active)	< 0.01 µM (active)	0.029 µM (active)	< 0.01 µM (active)	< 0.01 µM (active)	0.122 µM (active)	< 0.0165 µM (active)	0.161 µM (active)	0.0356 µM (active)	0.045	0.202 µM (active)	< 0.0212 µM (active)	0.546 µM (active)	0.0144 µM (active)	< 0.01 µM (active)	< 0.01 µM (active)	0.0569 µM (active)	0.0711 µM (active)	< 0.022 µM (active)
Cc1cccc2nc3cccc(C(=O)NCCC[N+](C)(CCCNC(=O)c4cccc5nc6cccc(C)c6nc45)Cc4c([N+](=O)[O-])ncn4C)c3nc12	0.979 µM (active)	0.726 µM (active)	0.659 µM (active)	233 µM (inactive)	12.6 µM (inactive)	0.41 µM (active)	0.0912 µM (active)	21.9 µM (inactive)	> 1100 µM (inactive)	0.293 µM (active)	0.82	1.07 µM (active)	> 1100 µM (inactive)	38.6 µM (inactive)	11.1 µM (inactive)	1.4 µM (inactive)	0.143 µM (active)	3.05 µM (inactive)	5.13 µM (inactive)	44.8 µM (inactive)
CC(CO)(CO)N1C(=O)C2C3c4ccccc4C(c4ccccc43)C2C1=O (stereo not given)	64 µM (inactive)	65.2 µM (inactive)	> 100 µM (inactive)	25.4 µM (inactive)	> 100 µM (inactive)	> 100 µM (inactive)	> 100 µM (inactive)	> 100 µM (inactive)	> 100 µM (inactive)	> 100 µM (inactive)	> 100	> 100 µM (inactive)	> 100 µM (inactive)	> 100 µM (inactive)	> 100 µM (inactive)	> 100 µM (inactive)	> 100 µM (inactive)	> 100 µM (inactive)	> 100 µM (inactive)	> 100 µM (inactive)
COc1cccc2c1C(=O)c1c(O)c3c(c(O)c1C2=O)C[C@@](O)(C(C)=O)CC3OC1CC(OC2CC(N)C(O)C(C)O2)C(O)C(C)O1 (stereo not given in full)	> 100 µM (inactive)	45.5 µM (inactive)	> 100 µM (inactive)	22.1 µM (inactive)	> 24.4 µM (inactive)	25.1 µM (inactive)	35.8 µM (inactive)	37.9 µM (inactive)	> 48.4 µM (inactive)	68.1 µM (inactive)	> 85.1	> 72.4 µM (inactive)	21.1 µM (inactive)	> 100 µM (inactive)	31.4 µM (inactive)	29.4 µM (inactive)	32.7 µM (inactive)	38.1 µM (inactive)	56.2 µM (inactive)	51.9 µM (inactive)
O=Cc1cc2c(o1)C(=O)c1ccccc1C2=O	4.78 µM (inactive)	1.42 µM (inactive)	2.84 µM (inactive)	0.434 µM (active)	0.459 µM (active)	0.427 µM (active)	1.07 µM (active)	1.72 µM (inactive)	0.251 µM (active)	0.192 µM (active)	0.281	0.405 µM (active)	0.656 µM (active)	1.81 µM (inactive)	1.33 µM (inactive)	0.312 µM (active)	0.318 µM (active)	0.153 µM (active)	0.197 µM (active)	2.85 µM (inactive)
